Assay [1] concerns human umbilical vein endothelial cells (HUVEC). Nature of the assay: HUVEC proliferation assay. Format: cell-based. The conditions noted are these: Homo sapiens, HUVEC, Table 3. In outline: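 Readout was MTT dye reduction (A595) after 72 h of stimulation with VEGF at 6 ng/ml final. Compound, in 0.1% DMSO final, was added 1 h before VEGF to HUVEC starved 24 h in 1% FBS. % inhibition was scaled between VEGF-alone and unstimulated wells; IC50 was fitted from triplicate dose curves.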

The target in assay [2] is T1, unphosphorylated VEGF-R2Δ50 (FLVK) (Homo sapiens, UniProt P35968, DEL940-989/E990V).
T1 construct: VEGF-R2Δ50 contains residues 806-939 and 990-1171; made in house; host or cells: baculovirus/insect cells
Nature of the assay: VEGF-R2 coupled spectrophotometric assay, unphosphorylated enzyme (FLVK). Format: biochemical. The conditions noted are these: Table 3; for Ki: some entries 'Slow binder'; for inhibition at 0.05 µM: at 50 nM. The source says: VEGF-R2 Construct for Assay: This construct determines the ability of a test compound to inhibit tyrosine kinase activity. A construct (VEGF-R2Δ50) of the cytosolic domain of human vascular endothelial growth factor receptor 2 (VEGF-R2) lacking the 50 central residues of the 68 residues of the kinase insert domain was expressed in a baculovirus/insect cell system. Of the 1356 residues of full-length VEGF-R2, VEGF-R2Δ50 contains residues 806-939 and 990-1171, and also one point mutation (E990V) within the kinase insert domain relative to wild-type VEGF-R2. Autophosphorylation of the purified construct was performed by incubation of the enzyme at a concentration of 4 μM in the presence of 3 mM ATP and 40 mM MgCl2 in 100 mM Hepes, pH 7.5, containing 5% glycerol and 5 mM DTT, at 4° C. for 2 h. […] See Parast et al., Biochemistry, 37, 16788-16801 (1998).
The production of ADP from ATP that accompanies phosphoryl transfer was coupled to oxidation of NADH using phosphoenolpyruvate (PEP) and a system having pyruvate kinase (PK) and lactic dehydrogenase (LDH). The oxidation of NADH was monitored by following the decrease of absorbance at 340 nm (e340=6.22 cm^−1 mM^−1) using a Beckman DU 650 spectrophotometer. Assay conditions for phosphorylated VEGF-R2Δ50 (indicated as FLVK-P in the tables below) were the following: 1 mM PEP; 250 μM NADH; 50 units of LDH/mL; 20 units of PK/mL; 5 mM DTT; 5.1 mM poly(E4Y1); 1 mM ATP; and 25 mM MgCl2 in 200 mM Hepes, pH 7.5. Assay conditions for unphosphorylated VEGF-R2Δ50 (indicated as FLVK in the tables) were the following: 1 mM PEP; 250 μM NADH; 50 units of LDH/mL; 20 units of PK/mL; 5 mM DTT; 20 mM poly(E4Y1); 3 mM ATP; and 60 mM MgCl2 and 2 mM MnCl2 in 200 mM Hepes, pH 7.5. Assays were initiated with 5 to 40 nM of enzyme. Ki values were determined by measuring enzyme activity in the presence of varying concentrations of test compounds. The data were analyzed using Enzyme Kinetic and Kaleidagraph software.

T1 sequence (P35968 with tags, fused parts or gaps DEL940-989/E990V limits assumed): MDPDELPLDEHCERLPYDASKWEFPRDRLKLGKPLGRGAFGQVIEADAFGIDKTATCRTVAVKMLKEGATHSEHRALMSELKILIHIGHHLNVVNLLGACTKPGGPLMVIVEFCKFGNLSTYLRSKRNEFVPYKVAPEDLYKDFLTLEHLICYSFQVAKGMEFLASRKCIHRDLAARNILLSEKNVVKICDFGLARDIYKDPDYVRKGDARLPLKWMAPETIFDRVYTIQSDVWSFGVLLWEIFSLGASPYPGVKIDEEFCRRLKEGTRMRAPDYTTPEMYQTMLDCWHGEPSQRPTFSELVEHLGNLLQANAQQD

Take `COc1cc(Nc2nc(N)c(-c3nc(-c4cc(NC(=O)OC(C)(C)C)ccc4C)no3)s2)cc(OC)c1OC` [B(6), 3-(2-methyl-5-(tert-butyloxycarboxyamino)-phenyl)-5-[2-[(3,4,5 trimethoxyphenyl)-amino]-4-amino-5-thiazolyl]-1,2,4-oxadiazole]: in assay [1], the IC50 (usually the concentration at which inhibition is half-maximal) is 56 nM. Moreover, in assay [2], affinity was put at a Ki of 0.61 nM. Taken in the same sequence, the figures for `COc1cc(Nc2nc(N)c(-c3nc(-c4cc(NC(=O)OC(C)(C)C)c(F)cc4F)no3)s2)cc(OC)c1OC` [B(13), (5-{5-[4-Amino-2-(3,4,5-trimethoxy-phenylamino)-thiazol-5-yl]-[1,2,4]oxadiazol-3-yl}-2,4-difluoro-phenyl)-carbamic acid tert-butyl ester] were 300 nM and 1.3 nM. Taken in the same sequence, the figures for `COc1cc(Nc2nc(N)c(-c3nc(-c4cc(NC(=O)OC(C)(C)C)c(Cl)cc4Cl)no3)s2)cc(OC)c1OC` [B(15), (5-{5-[4-Amino-2-(3,4,5-trimethoxy-phenylamino)-thiazol-5-yl]-[1,2,4]oxadiazol-3-yl}-2,4-dichloro-phenyl)-carbamic acid tert-butyl ester] were 100 nM and 1.7 nM. As to `COc1cccc(C(=O)Nc2ccc(C)c(-c3noc(-c4sc(NC(C)C)nc4N)n3)c2)c1` [B(22), N-{3-[5-(4-Amino-2-isopropylamino-thiazol-5-yl)-[1,2,4]oxadiazol-3-yl]-4-methyl-phenyl}-3-methoxy-benzamide], in assay [1], the concentration for half-maximal inhibition (IC50) is greater than 1000 nM. In addition, in assay [2], the inhibition (usually the change of the read-out against control, counted positive when it falls) at 0.05 µM came out at 54%. For `COc1cc(Nc2nc(N)c(-c3nc(-c4cccc(-c5nc(C)n[nH]5)c4)no3)s2)cc(OC)c1OC` [B(37)] the same measures were greater than 1000 nM and 36%. Taken in the same sequence, the figures for `COc1cc(Nc2nc(N)c(-c3nc(-c4cccc(-c5nc(C(C)C)n[nH]5)c4)no3)s2)cc(OC)c1OC` [B(38), 5-{3-[3-(5-isopropyl-2H-[1,2,4]triazol-3-yl)-phenyl]-[1,2,4]oxadiazol-5-yl}-N2-(3.4,5-trimethoxy-phenyl)-thiazole-2,4-diamine] were greater than 700 nM and 13%. On to `COc1cc(Nc2nc(N)c(-c3nc(-c4cccc(-c5nc(CC(C)C)n[nH]5)c4)no3)s2)cc(OC)c1OC` [B(39)], for which, in assay [1], the half-maximal inhibitory concentration (IC50) was greater than 100 nM. In addition, the Ki (in general, a measure of affinity in units of concentration, obtained from inhibition or displacement) in assay [2] is 6.3 nM. For `COc1cc(Nc2nc(N)c(-c3nc(-c4cc(N)ccc4C)no3)s2)cc(OC)c1OC` [C(6), 3-(3-amino-6-methyl-phenyl)-5-[2-[(3,4,5 trimethoxyphenyl)-amino]-4-amino-5-thiazolyl]-1,2,4-oxadiazole] the same measures were 300 nM and 33 nM.

In assay [1], `COc1cc(Nc2nc(N)c(-c3nc(-c4cc(N)ccc4Cl)no3)s2)cc(OC)c1OC` [C(7), 5-[3-(5-Amino-2-chloro-phenyl)-[1,2,4]oxadiazol-5-yl]-N2-(3,4,5-trimethoxy-phenyl)-thiazole-2,4-diamine] registered an IC50 of 300 nM. Moreover, in assay [2], the inhibition constant Ki stood at 17 nM. As to `COc1cc(Nc2nc(N)c(-c3nc(-c4cc(N)c(F)cc4F)no3)s2)cc(OC)c1OC` [C(8), 5-[3-(5-Amino-2,4,-difluoro-phenyl)-[1,2,4]oxadiazol-5-yl]-N2-(3,4,5-trimethoxy-phenyl)-thiazole-2,4-diamine], in assay [1], the IC50 was greater than 700 nM. In assay [2], this compound showed an inhibition at 0.05 µM of 21%. `COc1cc(Nc2nc(N)c(-c3nc(-c4cc(N)c(F)cc4Cl)no3)s2)cc(OC)c1OC` [C(9), 5-[3-(5-Amino-2-chloro-4-fluoro-phenyl)-[1,2,4]oxadiazol-5-yl]-N-(3,4,5-trimethoxy-phenyl)-thiazole-2,4-diamine] registered an IC50 in assay [1] of 300 nM. The affinity in assay [2], expressed as Ki, was 8 nM. For `C#CCCCC(=O)Nc1cccc(-c2noc(-c3sc(Nc4cc(OC)c(OC)c(OC)c4)nc3N)n2)c1` [D(62), Hex-5-ynoic acid (3-{5-[4-amino-2-(3,4,5-trimethoxy-phenylamino)-thiazol-5-yl]-[1,2,4]oxadiazol-3-yl}-phenyl)-amide], the 50% inhibitory concentration (IC50) in assay [1] was found to be 500 nM. 0.05 µM produced 20% inhibition in assay [2]. Turning to `Nc1nc(Nc2cccc(-c3nn[nH]n3)c2)sc1-c1nc(-c2cccc(NC(=O)c3cccc(Cl)c3)c2)no1` [D(63), N-[3(5-{4-Amino-2-[3-(2H-tetrazol-5-yl)-phenylamino]-thiazol-5-yl]-[1,2,4]oxadiazol-3-yl)-phenyl]-3-chloro-benzamide], in assay [1], the concentration for half-maximal inhibition (IC50) is greater than 10000 nM. The compound also returned an inhibition at 0.05 µM in assay [2] of 51%. Consider `COc1cc(Nc2nc(N)c(-c3nc(-c4cccc(NC(=O)c5cccc(C#N)c5)c4)no3)s2)cc(OC)c1OC` [D(68)], for which, in assay [1], the IC50 was greater than 100 nM. For the same compound, the Ki in assay [2] turned out to be 0.69 nM. For the compound `COc1cc(Nc2nc(N)c(-c3nc(-c4cccc(NC(=O)c5ccc(CN6CCOCC6)cc5)c4)no3)s2)cc(OC)c1OC` [D(76)], the 50% inhibitory concentration (IC50) in assay [1] was greater than 1000 nM. In addition, the affinity in assay [2], expressed as Ki, was 2.7 nM. Taken in the same sequence, the figures for `Cc1cccc(C(=O)Nc2cccc(-c3noc(-c4sc(NC(=O)Nc5ccccc5)nc4N)n3)c2)c1` [F(12), N-(3-{5-[4-Amino-2-(3-phenyl-ureido)-thiazol-5-yl]-[1,2,4]oxadiazol-3-yl}-phenyl)-3-methyl-benzamide] were greater than 300 nM and 2.2 nM. For `Cc1cccc(C(=O)Nc2cccc(-c3noc(-c4sc(NC(=O)NCc5ccccc5)nc4N)n3)c2)c1` [F(14), N-(3-{5-[4-Amino-2-(3-benzyl-ureido)-thiazol-5-yl]-[1,2,4]oxadiazol-3-yl}-phenyl)-3-methyl-benzamide], in assay [1], the IC50 was found to be 150 nM. The same compound yielded a Ki in assay [2] of 0.36 nM.

In assay [1], `COc1cccc(C(=O)Nc2cc(-c3noc(-c4sc(NC(=O)NCC(C)C)nc4N)n3)c(F)cc2F)c1` [O(7), N-(5-{5-[4-Amino-2-(3-isobutyl-ureido)-thiazol-5-yl]-[1,2,4]oxadiazol-3-yl}-2,4-difluoro-phenyl)-3-methoxy-benzamide] came in with an IC50 of 5.2 nM. Further, the affinity in assay [2] corresponds to a Ki of 0.16 nM.

In assay [2], `COc1cccc(C(=O)Nc2cc(-c3csc(-c4sc(NC(=O)NC[C@H]5CCCO5)nc4N)n3)c(F)cc2F)c1` [O(24), N-[5-(4′-Amino-2′-{3-[(R)-1-(tetrahydro-furan-2-yl)methyl]-ureido}-[2,5′]bithiazolyl-4-yl)-2,4-difluoro-phenyl]-3-methoxy-benzamide] registered an inhibition at 0.05 µM of 22%.

In assay [2], `COc1cccc(C(=O)Nc2cc(-c3csc(-c4sc(NC(=O)NCC5CCCCC5)nc4N)n3)c(F)cc2F)c1` [O(25), N-{5-[4′-Amino-2′-(3-cyclohexylmethyl-ureido)-[2,5′]bithiazolyl-4-yl]-2,4-difluoro-phenyl}-3-methoxy-benzamide] showed an inhibition at 0.05 µM of 28%. Turning to `COc1cccc(C(=O)Nc2cc(-c3csc(-c4sc(NC(=O)NCCN5CCOCC5)nc4N)n3)c(F)cc2F)c1` [O(26), N-(5-{4′-Amino-2′-[3-(2-morpholin-4-yl-ethyl)-ureido]-[2,5′]bithiazolyl-4-yl}-2,4-difluoro-phenyl)-3-methoxy-benzamide], in assay [2], affinity was put at a Ki of 1.4 nM. Same read-out and setting: under `COc1cccc(C(=O)Nc2cc(-c3csc(-c4sc(NC(=O)NCCN5CCCC5)nc4N)n3)c(F)cc2F)c1` [O(27), N-(5-{4′-Amino-2′-[3-(2-pyrrolidin-1-yl-ethyl)-ureido]-[2,5′]bithiazolyl-4-yl}-2,4-difluoro-phenyl)-3-methoxy-benzamide] stands 1.7 nM; under `COc1cccc(C(=O)Nc2cc(-c3csc(-c4sc(NC(=O)NCCOCCO)nc4N)n3)c(F)cc2F)c1` [O(28), N-[5-(4′-Amino-2′-{3-[2-(2-hydroxy-ethoxy)-ethyl]-ureido}-[2,5′]bithiazolyl-4-yl)-2,4-difluoro-phenyl]-3-methoxy-benzamide], 0.29 nM. In assay [2], `COc1cccc(C(=O)Nc2cc(-c3csc(-c4sc(NC(=O)NCCc5ccncc5)nc4N)n3)c(F)cc2F)c1` [O(30), N-(5-{4′-Amino-2′-[3-(2-pyridin-4-yl-ethyl)-ureido]-[2,5′]bithiazolyl-4-yl}-2,4-difluoro-phenyl)-3-methoxy-benzamide] came in with an inhibition at 0.05 µM of 39%. Turning to `CNC(=O)Nc1nc(N)c(-c2nc(-c3cccc(NC(=O)c4cccc(OC)c4)c3)c(C)s2)s1` [O(31), N-{3-[4′-Amino-5-methyl-2′-(3-methyl-ureido)-[2,5′]bithiazolyl-4-yl]-phenyl}-3-methoxy-benzamide], in assay [2], the Ki came out at 0.23 nM.
